Measured values taken from ChEMBL document CHEMBL5728173, “N4-hydroxycytidine and derivatives and anti-viral uses related thereto” (2020).

Columns and labels:
[1] = CPE Assay: Primary cytopathic effect (CPE) reduction assay. Four-concentration CPE inhibition assays are performed. Confluent or near-confluent cell culture monolayers in 96-well disposable microplates are prepared.
[2] = antiviral activity: Several derivatives of EIDD-01931 have shown antiviral activity in screening against various viruses. Activity data is shown in the tables below. Norovirus SARS Coronavirus GT1 Orbani HG23 Vero 76.

Compound | EC50 [1] | EC50 [2]
O=c1nc(NO)ccn1[C@@H]1O[C@H](COP2(=O)OCc3ccccc3O2)[C@H](O)C1O (stereo partly drawn) | 10.8 µM | 
CONc1ccn([C@@H]2O[C@H](CO)[C@H](O)C2(C)O)c(=O)n1 (stereo partly drawn) | > 75 µM | 
CC(C)(C)C(=O)OCOP(=O)(OCOC(=O)C(C)(C)C)OC[C@@]1(N=[N+]=[N-])O[C@@H](n2ccc(=O)[nH]c2=O)C(O)[C@H]1O (stereo partly drawn) | 56 µM | 
O=c1ccn([C@@H]2O[C@H](CO)[C@H](O)C23CC3(F)F)c(=O)[nH]1 (stereo partly drawn) | > 78 µM | 
CCCCCCCCCCCCCCCCNC(=O)ONc1ccn([C@@H]2O[C@H](CO)[C@H](O)C2O)c(=O)n1 (stereo partly drawn) | > 78 µM | 
C#CC1(O)[C@@H](O)[C@@H](COP(=O)(OCOC(=O)C(C)(C)C)OCOC(=O)C(C)(C)C)O[C@H]1n1ccc(=O)[nH]c1=O (stereo partly drawn) | 64.4 µM | 
CCCCCCCNC(=O)ONc1ccn([C@H]2O[C@H](CO)[C@H](O)C2O)c(=O)n1 (stereo partly drawn) | 38 µM | 
CC1(F)[C@@H](O)[C@@H](CO)O[C@H]1n1ccc(NO)nc1=O (stereo partly drawn) | > 75 µM | 
O=c1nc(NO)ccn1[C@@H]1O[C@H](CO)[C@H](O)C1F (stereo partly drawn) | > 75 µM | 
NNc1ccn([C@@H]2O[C@H](CO)[C@H](O)C2O)c(=O)n1 (stereo partly drawn) | > 78 µM | 
CC(C)(C)C(=O)OCOP(=O)(OCOC(=O)C(C)(C)C)OC[C@H]1O[C@@H](n2ccc(=O)[nH]c2=O)C(C)(F)[C@H]1O (stereo partly drawn) | 58 µM | 
CCCCCCCCCCCCCCCCOCCCOP(=O)(O)OC[C@H]1O[C@@H](n2ccc(NO)nc2=O)C(O)[C@H]1O (stereo partly drawn) | 34.5 µM | 
CC1(O)[C@@H](O)[C@@H](CO)O[C@H]1n1ccc(NO)nc1=O (stereo partly drawn) | 72 µM | > 366 µM
CNC(=O)ONc1ccn([C@@H]2O[C@H](CO)[C@H](O)C2O)c(=O)n1 (stereo partly drawn) | 32 µM | 
CCCCCCCCC(=O)OC[C@H]1O[C@@H](n2ccc(NO)nc2=O)C(O)[C@H]1O (stereo partly drawn) | 0.3 µM | 
O=c1nc(NO)cc[nH]1 [N4-hydroxycytosine] | > 78 µM | 
CCCCCCCNC(=O)ONc1ccn([C@@H]2O[C@H](CO)[C@H](O)C2O)c(=O)n1 (stereo partly drawn) | 29 µM | 
CCOP(=O)(OCC)OC[C@H]1O[C@@H](n2ccc(NO)nc2=O)C(O)[C@H]1O (stereo partly drawn) | > 78 µM | 
CN(C)C(=O)ONc1ccn([C@@H]2O[C@H](CO)[C@H](O)C2O)c(=O)n1 (stereo partly drawn) | 25 µM | 
O=c1nc(NO)ccn1[C@@H]1O[C@H](CO)[C@H](O)C1O (stereo partly drawn) |  | > 3860 µM
CC1(O)[C@H]2OP(=O)(Oc3ccccc3)OC[C@H]2O[C@H]1n1ccc(=O)[nH]c1=O (stereo partly drawn) | > 78 µM | 
CCCCCCCNC(=O)OC[C@H]1O[C@@H](n2ccc(NO)nc2=O)C(O)[C@H]1O (stereo partly drawn) | > 78 µM | 
